Patent publication US20100075942A1, “N-PHENYL-4-PYRIDIN-2-YL-BENZAMIDE DERIVATIVES AS HISTONE DEACYLASE (HDAC) INHIBITORS FOR THE TREATMENT OF CANCER” (ASTRAZENECA AB, priority 2005, published 2010)

Key:
HCT116 cells = assay: In vitro assay of inhibition of proliferation in whole cells, MTS (Test (b)); assay type: cell-based; conditions: Homo sapiens, HCT-116, 72 hours treatment
Protocol: Inhibition of proliferation in whole cells was assayed using the Promega cell titer 96 aqueous proliferation assay (Promega #G5421). HCT116 cells were seeded in 96 well plates at 1×10^3 cells/well, and allowed to adhere overnight. They were treated with inhibitors for 72 hours. 20 μl of the tetrazolium dye MTS was added to each well and the plates were reincubated for 3 hours. Absorbance was then measured on a 96 well plate reader at […]. The IC50 values for HDAC inhibitors were determined by performing dose response curves with individual compounds and determining the concentration of inhibitor producing fifty percent decrease in maximal signal (diluent control). • (c) In Vitro Enzyme Assay of Histone Deacetylase Activity in Whole Cells

recombinant human HDAC1 = target: T1, recombinant human HDAC1 (Homo sapiens, UniProt Q13547); assay: In vitro enzyme assay of recombinant HDAC1 (Test (a)); assay type: biochemical; conditions: recombinant human HDAC1 produced in Hi5 insect cells; acetylated histone H4 peptide, Fluor de Lys
T1 construct: FLAG (C); made in house; host or cells: Hi5 insect cells
Protocol: HDAC inhibitors were screened against recombinant human HDAC1 produced in Hi5 insect cells. The enzyme was cloned with a FLAG tag at the C-terminal of the gene and affinity purified using Anti-FLAG M2 agarose from SIGMA (A2220).
The deacetylase assays were carried out in a 50 μl reaction. HDAC1 (75 ng of enzyme) diluted in 15 μl of reaction buffer (25 mM TrisHC1 (pH 8), 137 mM NaCl, 2.7 mM KCl, 1 mM MgCl2) was mixed with either buffer alone (10 μl) or buffer containing compound (10 μl for 30 minutes at ambient temperature. 25 μM acetylated histone H4 peptide (KI 174 Biomol) diluted in 25 μl of buffer was then added to the reaction and incubated for one hour at ambient temperature. The reaction was stopped by addition of an equal volume (50 μl) Fluor de Lys developer (Biomol) containing Trichostatin A at 2 μM. The reaction was allowed to develop for 30 minutes at ambient temperature and then fluorescence measured at an excitation wavelength of 360 nm and an emission wavelength of 465 nm. IC50 values for HDAC enzyme inhibitors were determined by performing dose response curves with individual compounds and determining the concentration of inhibitor producing fifty percent decrease in the maximal signal (diluent control). • (b) In Vitro Assay of Inhibition of Proliferation in Whole Cells

T1 sequence (Q13547 whole entry): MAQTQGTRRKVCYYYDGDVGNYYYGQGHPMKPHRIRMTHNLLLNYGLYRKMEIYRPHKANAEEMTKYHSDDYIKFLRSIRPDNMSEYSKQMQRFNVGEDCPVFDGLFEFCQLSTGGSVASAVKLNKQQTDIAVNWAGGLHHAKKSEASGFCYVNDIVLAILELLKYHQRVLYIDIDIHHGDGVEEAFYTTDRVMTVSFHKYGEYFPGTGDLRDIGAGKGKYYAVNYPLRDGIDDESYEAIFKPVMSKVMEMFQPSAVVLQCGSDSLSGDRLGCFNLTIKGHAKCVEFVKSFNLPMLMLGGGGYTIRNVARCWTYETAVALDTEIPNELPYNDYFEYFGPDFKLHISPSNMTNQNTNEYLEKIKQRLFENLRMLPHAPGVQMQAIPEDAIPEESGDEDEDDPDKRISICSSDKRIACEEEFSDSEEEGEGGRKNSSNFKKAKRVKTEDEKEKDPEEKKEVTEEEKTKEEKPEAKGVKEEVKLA

In the case of `CCCCNCc1cnc(-c2ccc(C(=O)Nc3ccccc3N)cc2)c(Cl)c1` [Example 1, N-(2-Aminophenyl)-4-{5-[(butylamino)methyl]-3-chloropyridin-2-yl}benzamide], the IC50 (HCT116 cells) is reported as 0.16 µM and the IC50 (recombinant human HDAC1) is reported as 0.009 µM.

Work on `Nc1ccccc1NC(=O)c1ccc(-c2ncc(C(=O)NCCN3CCCC3)cc2Cl)cc1` [5 (1), N-(2-aminophenyl)-4-[3-chloro-5-(N-2-[pyrrolidin-1-yl]ethyl-carbamoyl)-pyridin-2-yl]benzamide] yielded an IC50 (HCT116 cells) of 0.22 µM and an IC50 (recombinant human HDAC1) of 0.009 µM.

Work on `Nc1ccccc1NC(=O)c1ccc(-c2ncc(CNCCN3CCCC3)cc2Cl)cc1` [2 (8), N-(2-aminophenyl)-4-(3-chloro-5-{[(2-pyrrolidin-1-ylethyl)amino]methyl}pyridin-2-yl)benzamide] yielded an IC50 (HCT116 cells) of 0.4 µM and an IC50 (recombinant human HDAC1) of 0.016 µM.
